Measured values taken from patent US10647673B2, “Acetophenone compound, preparation method thereof, and application thereof in fatty liver prevention and treatment” (Nanjing Bioenergy Medicine Science & Technology Co., Ltd., priority 2017, dated 2020).

Test system: fatty liver of the SD rats
Assay: Pathological sections and grading of fatty liver of SD rats
Format: in vivo
Conditions: compounds 80 mg/kg, Sim 10 mg/kg, OCA 10 mg/kg
Experimental: 500 g of lard oil was taken, placed in a container, and heated to melt. When the temperature rose to 100° C., it was added with 200 g of cholesterol to dissolve completely, and then further added with 20 g of propylthiouracil. The resulted mixture was stirred well, and added with 500 ml of Tween 80 after dissolution, resulting in an oil phase. At the same time, 600 mL of distilled water and 400 mL of 1,2-propanediol were taken and heated to 60° C. in a water bath, then were added with 40 g of sodium deoxycholate. The resulted mixture was stirred well until realizing complete dissolution, so as to give an aqueous phase. The aqueous phase was added into the oil phase and mixed well to give a lipid emulsion. The lipid emulsion was heated in a water bath of 37° C. before intragastric administration to animals.
An appropriate amount of pharmaceutical was weighed, added with 0.5% CMC-Na, and mixed homogeneously by grinding. There are groups for Compound 01 (80 mg/kg), Compound 02 (80 mg/kg), Compound 03 (80 mg/kg), Compound 04 (80 mg/kg), Compound 05 (80 mg/kg), Compound 06 (80 mg)/kg), Compound 07 (80 mg/kg), Compound 08 (80 mg/kg), Compound 09 (80 mg/kg), Compound 10 (80 mg/kg), Compound 11 (80 mg/kg), Compound 12 (80 mg/kg), Compound 13 (80 mg/kg), Compound 14 (80 mg/kg), Compound 15 (80 mg/kg), Compound 16 (80 mg/kg), Compound 17 (80 mg/kg), Compound 18 (80 mg/kg), Compound 19 (80 mg/kg), Compound 20 (80 mg/kg), Compound 21 (80 mg/kg), and Compound 22 (80 mg/kg).
Male SD rats weighing 180-200 g were fed adaptively for 7 days. Based on body weight, 10 animals were used as control and the remaining animals were intragastrically administered with the lipid emulsion every day, 1 ml/100 g body weight for 14 days. After fasting for 12 hours, 1 mL of blood was collected from the orbits of the animals, and was determined by Hitachi Automatic Biochemical Analyzer 7080 for serum cholesterol (CHO), triglyceride (TG), low density lipoprotein (LDL-C) and high density lipoprotein (HDL-C).
The modeled rats were continued with the intragastric administration of the lipid emulsion. At the same time, the pharmaceutical-administered groups were administrated with a corresponding dose of pharmaceuticals, while the Model group was administrated with an equal volume of solvent. The pharmaceutical-administered groups were administrated with the lipid emulsion in the morning, and with the pharmaceuticals in the afternoon. The animals were measured for the body weight once a week, and were observed. After 14 days of continuous administration, 1 mL of blood was collected from the orbits, and was determined for the contents of triglyceride, cholesterol, low density lipoprotein and high density lipoprotein in blood serum.

SMILES	Pathological grading: Steatotic hepatocytes (animal 1)	Pathological grading: Steatotic hepatocytes (animal 2)	Pathological grading: Steatotic hepatocytes (animal 3)	Pathological grading: Steatotic hepatocytes (animal 4)	Pathological grading: Steatotic hepatocytes (animal 5)
CC(=O)c1ccc(NC(=O)C(C)(C)CCCOc2cc(C)ccc2C)c(O)c1 [Compound 18]	+ (25-45% of hepatocytes undergoing steatosis)	+ (25-45% of hepatocytes undergoing steatosis)	++ (45-65% of hepatocytes undergoing steatosis)	++ (45-65% of hepatocytes undergoing steatosis)	++ (45-65% of hepatocytes undergoing steatosis)
CC(=O)c1ccc(NC(=O)c2cccnc2)cc1 [Compound 01]	++ (45-65% of hepatocytes undergoing steatosis)	++ (45-65% of hepatocytes undergoing steatosis)	++ (45-65% of hepatocytes undergoing steatosis)	++ (45-65% of hepatocytes undergoing steatosis)	++ (45-65% of hepatocytes undergoing steatosis)
CC(C)(Oc1ccc(Cl)cc1)C(=O)Nc1ccc(C(=O)CNC(=O)c2cccnc2)cc1 [Compound 17]	+ (25-45% of hepatocytes undergoing steatosis)	++ (45-65% of hepatocytes undergoing steatosis)	++ (45-65% of hepatocytes undergoing steatosis)	++ (45-65% of hepatocytes undergoing steatosis)	++ (45-65% of hepatocytes undergoing steatosis)
Cc1ccc(C)c(OCCCC(C)(C)C(=O)NCC(=O)c2ccc(NC(=O)c3cccnc3)cc2)c1 [Compound 11]	+ (25-45% of hepatocytes undergoing steatosis)	++ (45-65% of hepatocytes undergoing steatosis)	++ (45-65% of hepatocytes undergoing steatosis)	++ (45-65% of hepatocytes undergoing steatosis)	+ (25-45% of hepatocytes undergoing steatosis)
Cc1ccc(C)c(OCCCC(C)(C)C(=O)NCC(=O)c2ccc(N)cc2)c1 [Compound 04]	++ (45-65% of hepatocytes undergoing steatosis)	++ (45-65% of hepatocytes undergoing steatosis)	++ (45-65% of hepatocytes undergoing steatosis)	+++ (65-85% or more of hepatocytes undergoing steatosis)	++ (45-65% of hepatocytes undergoing steatosis)
Nc1ccc(C(=O)CNC(=O)c2cccnc2)cc1 [Compound 03]	++ (45-65% of hepatocytes undergoing steatosis)	+ (25-45% of hepatocytes undergoing steatosis)	+++ (65-85% or more of hepatocytes undergoing steatosis)	++ (45-65% of hepatocytes undergoing steatosis)	++ (45-65% of hepatocytes undergoing steatosis)
CC(=O)c1ccc(O)c(CCCOC(=O)C(C)(C)CCCOc2cc(C)ccc2C)c1 [Compound 15]	++ (45-65% of hepatocytes undergoing steatosis)	+++ (65-85% or more of hepatocytes undergoing steatosis)	++ (45-65% of hepatocytes undergoing steatosis)	++ (45-65% of hepatocytes undergoing steatosis)	++ (45-65% of hepatocytes undergoing steatosis)
CC(=O)c1ccc(NC(=O)c2cccnc2)c(O)c1 [Compound 20]	++ (45-65% of hepatocytes undergoing steatosis)	+++ (65-85% or more of hepatocytes undergoing steatosis)	++ (45-65% of hepatocytes undergoing steatosis)	++ (45-65% of hepatocytes undergoing steatosis)	++ (45-65% of hepatocytes undergoing steatosis)
CC(=O)c1ccc(O)c(NC(=O)C(C)(C)CCCOc2cc(C)ccc2C)c1 [Compound 05]	+ (25-45% of hepatocytes undergoing steatosis)	+++ (65-85% or more of hepatocytes undergoing steatosis)	++ (45-65% of hepatocytes undergoing steatosis)	++ (45-65% of hepatocytes undergoing steatosis)	+ (25-45% of hepatocytes undergoing steatosis)
CC(=O)c1ccc(NC(=O)C(C)(C)Oc2ccc(C(=O)c3cccc(Cl)c3)cc2)cc1 [Compound 07]	++ (45-65% of hepatocytes undergoing steatosis)	++ (45-65% of hepatocytes undergoing steatosis)	++ (45-65% of hepatocytes undergoing steatosis)	++ (45-65% of hepatocytes undergoing steatosis)	+ (25-45% of hepatocytes undergoing steatosis)
CC(=O)c1ccc(O)c(CCCOC(=O)c2cccnc2)c1 [Compound 16]	+ (25-45% of hepatocytes undergoing steatosis)	++ (45-65% of hepatocytes undergoing steatosis)	+++ (65-85% or more of hepatocytes undergoing steatosis)	++ (45-65% of hepatocytes undergoing steatosis)	+ (25-45% of hepatocytes undergoing steatosis)
CC(=O)c1ccc(O)c(NC(=O)c2cccnc2)c1 [Compound 06]	+ (25-45% of hepatocytes undergoing steatosis)	++ (45-65% of hepatocytes undergoing steatosis)	++ (45-65% of hepatocytes undergoing steatosis)	+ (25-45% of hepatocytes undergoing steatosis)	++ (45-65% of hepatocytes undergoing steatosis)
CC(=O)c1ccc(NC(=O)C(C)(C)Oc2ccc(Cl)cc2)c(O)c1 [Compound 19]	++ (45-65% of hepatocytes undergoing steatosis)	++ (45-65% of hepatocytes undergoing steatosis)	++ (45-65% of hepatocytes undergoing steatosis)	+++ (65-85% or more of hepatocytes undergoing steatosis)	+ (25-45% of hepatocytes undergoing steatosis)
CC(=O)c1ccc(NC(=O)C(C)(C)Oc2ccc(Cl)cc2)cc1 [Compound 08]	++ (45-65% of hepatocytes undergoing steatosis)	++ (45-65% of hepatocytes undergoing steatosis)	+ (25-45% of hepatocytes undergoing steatosis)	++ (45-65% of hepatocytes undergoing steatosis)	+ (25-45% of hepatocytes undergoing steatosis)
CC(=O)c1ccc(NC(=O)C(C)(C)Oc2ccc(C3CC3(Cl)Cl)cc2)cc1 (stereo not drawn) [Compound 10]	++ (45-65% of hepatocytes undergoing steatosis)	++ (45-65% of hepatocytes undergoing steatosis)	+ (25-45% of hepatocytes undergoing steatosis)	++ (45-65% of hepatocytes undergoing steatosis)	++ (45-65% of hepatocytes undergoing steatosis)
